# Laboratory results as given in patent US7812039B2, “Drugs for chronic pains” (Nicox S.A., priority 2001, dated 2010).
# Key:
# [1] = tested on: Human cells of the umbilical vein; test: NO generation from NO-donors with endothelial cells, chemiluminescence; assay type: cell-based; settings: incubation of 100 μM, 5 minutes
# Method: (§1) The test relates to the nitric oxide generation from the NO-donors, for example nitroglycerin, niocorandil, nitroprussiate, etc., in the presence of endothelial cells (method a) or platelets (method b). • a) Endothelial Cells • Human cells of the umbilical vein, cultured on plates, having a 10^3 density cells/well were incubated for 5 minutes with scalar concentrations of NO-donor (1-100 μg/ml). The incubation medium (physiologic solution, for example Tyrode) was then analyzed to determine the capability to generate NO of the compound under test, by means of: • 1) nitric oxide detection by chemiluminescence; • 2) cGMP determination (cyclic GMP n° 2715 of the above mentioned Merck). • For the analysis by chemiluminescence, an amount equal to 100 μl was injected in the reaction chamber of a chemiluminescence analyzer containing glacial acetic acid and potassium iodide. The nitrites/nitrates present in the medium, under these conditions are converted into NO which is then detected after reaction with ozone, which produces light. In the equipments which measure the chemiluminescence, the luminescence produced is directly proportional to the generated NO levels and can be measured by a suitable photomultiplying unit of a chemiluminescence analyzer. The photomultiplier converts the incident light in electric voltage, which is quantitatively recorded. […]
# Washed human platelets = test: NO generation from NO-donors with platelets, chemiluminescence; assay type: cell-based; settings: incubation of 100 μM, 5 minutes
# Method: as §1
smiles,measurement,setting,value
O=C(NCCO[N+](=O)[O-])c1cccnc1 [nicorandil],amount of NO generated,[1],about 10 μM
same,amount of NO generated,Washed human platelets,35 µM
